Test results: PMC11311998, “AR71, Histamine H3 Receptor Ligand—In Vitro and In Vivo Evaluation (Anti-Inflammatory Activity, Metabolic Stability, Toxicity, and Analgesic Action)” (International Journal of Molecular Sciences, 2024)

Experiments:
[1] = system: rat models of neuropathic pain; parameters: method as in PMID 18164820; conditions: surgically or virus-induced; cited from earlier work
SH-SY5Y cells [2] = test: mitochondrial membrane potential (JC-10); assay type: cell-based, human; conditions: 50 μM, 3 h
Description: Neurotoxin-like rotenone induces oxidative stress inside cells that might influence mitochondrial membrane potential (MMP). Maintaining unaffected MMP is essential for neuroprotection. In our study, we tested the effect of AR71 on MMP in the presence and absence of rotenone.
Next, the effect of AR71 (0.78 μM) when co-treated with rotenone was tested; 1 μM carbonyl cyanide m-chlorophenylhydrazone (CCCP) was used as a positive control.
The MMP was measured by a commercially available kit (Sigma Aldrich, MAK159, for live cells) that utilises a cationic, lipophilic dye JC-10. It allows for ratiometric analysis of mitochondrial membrane potential, where a shift from orange (λEX/λEM: 540 nm/590 nm) to green fluorescence (λEX/λEM: 490 nm/525 nm) is indicative of compromised mitochondria. For this assay, the SH-SY5Y cells (1 × 10^4 cells/well) were seeded in a black-sided clear bottom 96-well plate (Thermo Scientific Nunclon^TM Delta Surface no. 137101, Denmark) in a complete culture medium. First, to choose the optimal concentration of rotenone in this assay, a dose–response effect of rotenone (0.05, 0.5, 5, 50 μM) was studied. Next, the cells were pre-treated with AR71 (0.78 μM) for 1 h before rotenone stimulation (50 μM) for another 3 h. […] The positive control was carbonyl cyanide m-chlorophenylhydrazone (CCCP; 1 μM)—uncoupling agent on the proton gradient. After incubation, 50 μL/well of the JC-10 dye loading solution was added to each well with cells. The plate was incubated for 45 min in the incubator. Then, 50 μL/well of Assay Buffer B was added to each well, and the fluorescence was monitored immediately. The red/green fluorescence intensity ratio was used to calculate the results.

SH-SY5Y cells [3] = assay type: cell-based, human; conditions: rotenone alone 6.25 μM, 24 h
Description: To test neuroprotective activity, SH-SY5Y cells were pre-treated for 1 h with various concentrations of AR71, after which rotenone (6.25 μM) was added and the cells were cultured for another 24 h. […] Co-treatment with AR71 protected cells from the toxic effect of rotenone, resulting in LDH leakage ranging from 10 to 22% only.
The protective effect of AR71 against rotenone-induced toxicity in SH-SY5Y cells was assessed by measuring LDH release. SH-SY5Y cells (6 × 10^3 cells/100 μL/well) were seeded in black 96-well plates Nunclon^TM Delta Surface no. 137101 (ThermoFischer Scientific, Waltham, MA, USA) and cultured overnight. The next day, the medium was removed and replaced with a fresh one with an increasing concentration of AR71 (0.0975–50 μM). After 1 h of compound pre-treatment, the neurotoxin rotenone (6.25 μM) was added, and the cells were cultured for another 24 h. For the negative and positive controls, cells were treated with 0.1% DMSO and 6.25 μM of rotenone alone, respectively. The cells treated with the compound alone were used to compare the effect with those co-treated with rotenone. After 24 h, the level of LDH leakage was measured by the CytoTox-ONE™ Homogeneous Membrane Integrity Assay (Promega, Madison, WI, USA) following the manufacturer’s protocol. Briefly, 100 μL of CytoTox-ONE™ reagent (Promega, Madison, WI, USA) was added to each well, and the cells were incubated for 10 min at room temperature protected from light. The fluorescence was measured using the multimode plate reader Tecan Spark (Tecan, Männedorf, Switzerland) with an excitation wavelength of 560 nm and an emission wavelength of 590 nm.

Row | Structure (SMILES) | efficacy in rat models of neuropathic pain [1] | reduction of MMP compared with control cells (SH-SY5Y cells [2]) | LDH leakage vs control cells (SH-SY5Y cells [3])
1 | CNC(=O)c1ccc(Oc2ccc3c(c2)CCN(C2CCC2)CC3)nc1 [GSK189254] | effective | – | –
2 | CC(C)N1CCCN(C(=O)C2CCN(c3ccc(C(F)(F)F)nc3)CC2)CC1 [GSK334429] | effective | – | –
3 | C=C(C)[C@H]1Cc2c(ccc3c2O[C@@H]2COc4cc(OC)c(OC)cc4[C@@H]2C3=O)O1 [rotenone, reference compound] | – | 67% | twice as much LDH leakage as control cells
